# Structures can show the parent of a compound that is named as a salt.
# Test system: Bacteriophage Phi X174 (ATCC 13706-81)
# Test: Virucidal infectivity (percent reduction in virus infectivity, E. coli outgrowth with resazurin dye);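 note: exposed phage diluted into broth, E. coli outgrowth followed 16-24 h at 37 °C by fluorescence rate, unexposed phage set as 100% signal, phage-free as 0%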
# Settings: 10-minute exposure
# [1] = secondary agent 3 mM + Maleic Acid 3 mM
# [2] = secondary agent 3 mM + Phosphonc Acid 50-150 mM
# [3] = secondary agent 3 mM + Sulfosuccinic Acid 10-32 mM
# Description: Bacteriophage Phi X174 (ATCC 13706-81) was added 1:10 (−108 plaque forming units (PFU) per sample) into a solution containing the composition of interest. Following a 10-minute exposure, the sample was transferred 1:10 into Tryptic Soy Broth (TSB). Following 10 minutes in TSB, a second 1:10 dilution was completed into an outgrowth solution for the Phi X174 host (E. coli ATCC 13706) that contained TSB and a resazurin dye. E. coli outgrowth was then monitored at 37° C. for 16-24 hours and the rate of fluorescence development was calculated. The rate observed when Phi X174 was not exposed to any composition represented a 100% Phi X174 signal. The rate observed without Phi X174 present represented a “0% signal.” The rate obtained following Phi X174 exposure to a given composition was compared to the signal obtained with no exposure to calculate the “percent reduction in virus infectivity.”
structure (smiles),measurement,setting,value
[Cl][Cu][Cl] [Copper (II) Chionde],"% Reduction, Secondary Antiviral Agent Alone",agent alone 1 mM,20%
same,"% Reduction, Secondary Antiviral Agent Alone",agent alone 4 mM,18%
same,"% Reduction, Secondary Antiviral Agent Alone",agent alone 9 mM,23%
same,"% Reduction, Secondary Antiviral Agent Alone",agent alone 27 mM,99%
same,"reduction in virus infectivity, in Combination with Maleic Acid (3 mM)",secondary agent 26 mM + Maleic Acid 3 mM,70%
same,"reduction in virus infectivity, in Combination with Phosphonc Acid (50-150 mM)",secondary agent 26 mM + Phosphonc Acid 50-150 mM,99%
same,"reduction in virus infectivity, in Combination with Sulfosuccinic Acid (10-32 mM)",secondary agent 26 mM + Sulfosuccinic Acid 10-32 mM,99%
same,"reduction in virus infectivity, in Combination with Maleic Acid (3 mM)",secondary agent 1-3 mM + Maleic Acid 3 mM,72%
same,"reduction in virus infectivity, in Combination with Phosphonc Acid (50-150 mM)",secondary agent 1-3 mM + Phosphonc Acid 50-150 mM,44%
same,"reduction in virus infectivity, in Combination with Sulfosuccinic Acid (10-32 mM)",secondary agent 1-3 mM + Sulfosuccinic Acid 10-32 mM,94%
same,"reduction in virus infectivity, in Combination with Maleic Acid (3 mM)",secondary agent 4-6 mM + Maleic Acid 3 mM,57%
same,"reduction in virus infectivity, in Combination with Phosphonc Acid (50-150 mM)",secondary agent 4-6 mM + Phosphonc Acid 50-150 mM,87%
same,"reduction in virus infectivity, in Combination with Sulfosuccinic Acid (10-32 mM)",secondary agent 4-6 mM + Sulfosuccinic Acid 10-32 mM,96%
same,"reduction in virus infectivity, in Combination with Maleic Acid (3 mM)",secondary agent 11-13 mM + Maleic Acid 3 mM,38%
same,"reduction in virus infectivity, in Combination with Phosphonc Acid (50-150 mM)",secondary agent 11-13 mM + Phosphonc Acid 50-150 mM,80%
same,"reduction in virus infectivity, in Combination with Sulfosuccinic Acid (10-32 mM)",secondary agent 11-13 mM + Sulfosuccinic Acid 10-32 mM,99%
N=C(N)N [Guanidine Hydrochloride],"% Reduction, Secondary Antiviral Agent Alone",agent alone 6 mM,0%
same,"% Reduction, Secondary Antiviral Agent Alone",agent alone 18 mM,0%
same,"% Reduction, Secondary Antiviral Agent Alone",agent alone 55 mM,0%
same,"% Reduction, Secondary Antiviral Agent Alone",agent alone 164 mM,0%
same,"reduction in virus infectivity, in Combination with Maleic Acid (3 mM)",[1],0%
same,"reduction in virus infectivity, in Combination with Phosphonc Acid (50-150 mM)",[2],40%
same,"reduction in virus infectivity, in Combination with Sulfosuccinic Acid (10-32 mM)",[3],10%
same,"reduction in virus infectivity, in Combination with Maleic Acid (3 mM)",secondary agent 10 mM + Maleic Acid 3 mM,0%
same,"reduction in virus infectivity, in Combination with Phosphonc Acid (50-150 mM)",secondary agent 10 mM + Phosphonc Acid 50-150 mM,34%
same,"reduction in virus infectivity, in Combination with Sulfosuccinic Acid (10-32 mM)",secondary agent 10 mM + Sulfosuccinic Acid 10-32 mM,12%
same,"reduction in virus infectivity, in Combination with Maleic Acid (3 mM)",secondary agent 29 mM + Maleic Acid 3 mM,0%
same,"reduction in virus infectivity, in Combination with Phosphonc Acid (50-150 mM)",secondary agent 29 mM + Phosphonc Acid 50-150 mM,34%
same,"reduction in virus infectivity, in Combination with Sulfosuccinic Acid (10-32 mM)",secondary agent 29 mM + Sulfosuccinic Acid 10-32 mM,1%
same,"reduction in virus infectivity, in Combination with Maleic Acid (3 mM)",secondary agent 86 mM + Maleic Acid 3 mM,0%
same,"reduction in virus infectivity, in Combination with Phosphonc Acid (50-150 mM)",secondary agent 86 mM + Phosphonc Acid 50-150 mM,46%
same,"reduction in virus infectivity, in Combination with Sulfosuccinic Acid (10-32 mM)",secondary agent 86 mM + Sulfosuccinic Acid 10-32 mM,0%
N=C(N)NN [Aminoguanidine Hydrochloride],"% Reduction, Secondary Antiviral Agent Alone",agent alone 6 mM,2%
same,"% Reduction, Secondary Antiviral Agent Alone",agent alone 18 mM,7%
same,"% Reduction, Secondary Antiviral Agent Alone",agent alone 53 mM,4%
same,"% Reduction, Secondary Antiviral Agent Alone",agent alone 158 mM,1%
same,"reduction in virus infectivity, in Combination with Maleic Acid (3 mM)",[1],12%
same,"reduction in virus infectivity, in Combination with Phosphonc Acid (50-150 mM)",[2],50%
same,"reduction in virus infectivity, in Combination with Sulfosuccinic Acid (10-32 mM)",[3],0%
same,"reduction in virus infectivity, in Combination with Maleic Acid (3 mM)",secondary agent 9 mM + Maleic Acid 3 mM,4%
same,"reduction in virus infectivity, in Combination with Phosphonc Acid (50-150 mM)",secondary agent 9 mM + Phosphonc Acid 50-150 mM,86%
same,"reduction in virus infectivity, in Combination with Sulfosuccinic Acid (10-32 mM)",secondary agent 9 mM + Sulfosuccinic Acid 10-32 mM,0%
same,"reduction in virus infectivity, in Combination with Maleic Acid (3 mM)",secondary agent 28 mM + Maleic Acid 3 mM,0%
same,"reduction in virus infectivity, in Combination with Phosphonc Acid (50-150 mM)",secondary agent 28 mM + Phosphonc Acid 50-150 mM,50%
same,"reduction in virus infectivity, in Combination with Sulfosuccinic Acid (10-32 mM)",secondary agent 28 mM + Sulfosuccinic Acid 10-32 mM,4%
same,"reduction in virus infectivity, in Combination with Maleic Acid (3 mM)",secondary agent 85 mM + Maleic Acid 3 mM,0%
same,"reduction in virus infectivity, in Combination with Phosphonc Acid (50-150 mM)",secondary agent 85 mM + Phosphonc Acid 50-150 mM,99%
same,"reduction in virus infectivity, in Combination with Sulfosuccinic Acid (10-32 mM)",secondary agent 85 mM + Sulfosuccinic Acid 10-32 mM,13%
"CCCCCCCCCC[N+](C)(C)[O-] [Mackamine C-10, Decylamina oxide]","% Reduction, Secondary Antiviral Agent Alone",agent alone 6 mM,7%
same,"% Reduction, Secondary Antiviral Agent Alone",agent alone 18 mM,4%
same,"% Reduction, Secondary Antiviral Agent Alone",agent alone 53 mM,11%
same,"% Reduction, Secondary Antiviral Agent Alone",agent alone 183 mM,30%
same,"reduction in virus infectivity, in Combination with Maleic Acid (3 mM)",secondary agent 30 mM + Maleic Acid 3 mM,10%
same,"reduction in virus infectivity, in Combination with Phosphonc Acid (50-150 mM)",secondary agent 30 mM + Phosphonc Acid 50-150 mM,0%
same,"reduction in virus infectivity, in Combination with Sulfosuccinic Acid (10-32 mM)",secondary agent 30 mM + Sulfosuccinic Acid 10-32 mM,6%
same,"reduction in virus infectivity, in Combination with Maleic Acid (3 mM)",secondary agent 49 mM + Maleic Acid 3 mM,35%
same,"reduction in virus infectivity, in Combination with Phosphonc Acid (50-150 mM)",secondary agent 49 mM + Phosphonc Acid 50-150 mM,0%
same,"reduction in virus infectivity, in Combination with Sulfosuccinic Acid (10-32 mM)",secondary agent 49 mM + Sulfosuccinic Acid 10-32 mM,0%
same,"reduction in virus infectivity, in Combination with Maleic Acid (3 mM)",secondary agent 59 mM + Maleic Acid 3 mM,64%
same,"reduction in virus infectivity, in Combination with Phosphonc Acid (50-150 mM)",secondary agent 59 mM + Phosphonc Acid 50-150 mM,0%
same,"reduction in virus infectivity, in Combination with Sulfosuccinic Acid (10-32 mM)",secondary agent 59 mM + Sulfosuccinic Acid 10-32 mM,2%
same,"reduction in virus infectivity, in Combination with Maleic Acid (3 mM)",secondary agent 79 mM + Maleic Acid 3 mM,62%
same,"reduction in virus infectivity, in Combination with Phosphonc Acid (50-150 mM)",secondary agent 79 mM + Phosphonc Acid 50-150 mM,0%
same,"reduction in virus infectivity, in Combination with Sulfosuccinic Acid (10-32 mM)",secondary agent 79 mM + Sulfosuccinic Acid 10-32 mM,0%
O=C(O)/C=C\C(=O)O [Maleic Acid],"reduction in virus infectivity, Primary Antiviral Agent without secondary agent (None)","Maleic Acid 3 mM, no secondary agent",1-8%
[Cl][Fe]([Cl])[Cl] [iron (iii) chloride],"% Reduction, Secondary Antiviral Agent Alone",agent alone 8 mM,3%
same,"% Reduction, Secondary Antiviral Agent Alone",agent alone 17 mM,18%
same,"% Reduction, Secondary Antiviral Agent Alone",agent alone 33 mM,21%
same,"% Reduction, Secondary Antiviral Agent Alone",agent alone 66 mM,32%
same,"reduction in virus infectivity, in Combination with Maleic Acid (3 mM)",secondary agent 8 mM + Maleic Acid 3 mM,0%
same,"reduction in virus infectivity, in Combination with Sulfosuccinic Acid (10-32 mM)",secondary agent 8 mM + Sulfosuccinic Acid 10-32 mM,99%
same,"reduction in virus infectivity, in Combination with Maleic Acid (3 mM)",secondary agent 17 mM + Maleic Acid 3 mM,23%
same,"reduction in virus infectivity, in Combination with Sulfosuccinic Acid (10-32 mM)",secondary agent 17 mM + Sulfosuccinic Acid 10-32 mM,99%
same,"reduction in virus infectivity, in Combination with Maleic Acid (3 mM)",secondary agent 33 mM + Maleic Acid 3 mM,0%
same,"reduction in virus infectivity, in Combination with Sulfosuccinic Acid (10-32 mM)",secondary agent 33 mM + Sulfosuccinic Acid 10-32 mM,99%
same,"reduction in virus infectivity, in Combination with Maleic Acid (3 mM)",secondary agent 66 mM + Maleic Acid 3 mM,0%
same,"reduction in virus infectivity, in Combination with Sulfosuccinic Acid (10-32 mM)",secondary agent 66 mM + Sulfosuccinic Acid 10-32 mM,99%
